Experiment [1] has as its target T1, MC1 receptor (Homo sapiens, UniProt Q01726).
T1 construct: endogenous in cells; host or cells: M4Be human melanocyte cell line
As to the kind of experiment: cAMP production in M4Be human melanocyte cells (EC50 determination). Format: cell-based. The settings on record: mean of at least two sets of independent experiments. As for the experimental part: The M4Be human cell line (Jacubovich et al. Cancer Immunol. Immunother. 1979, 7, 59-64), a melanocyte cell line capable of producing melanins, was used in this study to determine the EC50 values.
The cells were maintained in Dulbecco's modified Eagle medium, with 10% of FCS, 1 mM of glutamine, 100 U/ml of penicillin and 10^−4 g/ml of streptomycin. All the cell lines were maintained at 37° C. in a 5% CO2 atmosphere, and the cell culture media were renewed every two days. The cells were plated onto a 96-well plate (Nunc, Roskilde, Denmark) 24 hours before contact with the peptides.
(§1) Briefly, the cells plated out the day before were incubated for 1 hour with 10^−4 M of adenine (Sigma) and then for 10 minutes in Krebs Ringer Hepes medium with 10^−4 M of isobutyl-1-methylxanthine (Sigma), 10^−4 M of 4-[(3-butoxy-4-methoxyphenyl)methyl]-2-imidazolidinone (Calbiochem) and tripeptides according to the invention, at 10^−7 M.
(§2) After this period of time, cell lysis was carried out according to the manufacturer's protocol.
The cAMP content was measured using a competition binding assay kit (RPN225, Amersham Pharmacia Biotech) according to the manufacturer's instructions. Each independent experiment was carried out at least twice in triplicate.
Determination of the EC50:
The curves were adjusted and the EC50 values were determined with nonlinear regression in the GraphPad Prism (GraphPad software). Each EC50 value was the mean of at least two sets of independent experiments.

Experiment [2] concerns the target T2, MC1 receptor (Mus musculus, UniProt Q01727).
T2 construct: The Cloudman S91 mouse melanoma cell line (Yasumara et al. Science. 154, pages 1186-1189) was used for the preliminary screening; endogenous in cells; host or cells: Cloudman S91 mouse melanoma cells
As to the kind of experiment: cAMP induction on Cloudman S91 mouse melanoma cell line (preliminary screening). Particulars: tripeptide at 50 nM, percentage of the maximum response with control peptide (1) at 50 nM. It counts as cell-based. As for the experimental part:
The Cloudman S91 mouse melanoma cell line (Yasumara et al. Science. 154, pages 1186-1189) was used for the preliminary screening. The cells were maintained in HAM F10 with 10% of horse serum, 2% of fetal calf serum (FCS), 1 mM of glutamine, 100 U/ml of penicillin and 10^−4 g/ml of streptomycin (Eurobio, Les Ulis, France). All the cell lines were maintained at 37° C. in a 5% CO2 atmosphere, and the cell culture media were renewed every two days. The cells were plated out onto a 96-well plate (Nunc, Roskilde, Denmark) 24 hours before contact with the peptides.
as §1, §2
The cAMP content was measured using a competition binding assay kit (RPN225, Amersham Pharmacia Biotech) according to the manufacturer's instructions. […]
Thus, 1 tripeptide according to the invention was tested, at a concentration of 50 nM, on the induction of cAMP, which was calculated with respect to the response of cAMP production induced by α-MSH (50 nM).

Non-standard residues stand in square brackets, D forms with d. Residues, ends and D or L forms follow the SMILES beside them. *: point of attachment. Palmitoyl = CCCCCCCCCCCCCCCC(=O)*; Nle = CCCC[C@H](N)C(=O)O

T1 sequence (Q01726 whole entry): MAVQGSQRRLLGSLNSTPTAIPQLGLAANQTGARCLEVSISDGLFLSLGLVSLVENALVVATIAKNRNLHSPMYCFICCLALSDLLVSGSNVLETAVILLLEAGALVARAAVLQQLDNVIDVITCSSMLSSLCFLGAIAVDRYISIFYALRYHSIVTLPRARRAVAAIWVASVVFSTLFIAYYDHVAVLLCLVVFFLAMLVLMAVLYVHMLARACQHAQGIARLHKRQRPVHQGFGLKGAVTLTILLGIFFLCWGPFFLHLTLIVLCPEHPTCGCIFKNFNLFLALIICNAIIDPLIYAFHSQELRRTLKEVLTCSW
T2 sequence (Q01727 whole entry): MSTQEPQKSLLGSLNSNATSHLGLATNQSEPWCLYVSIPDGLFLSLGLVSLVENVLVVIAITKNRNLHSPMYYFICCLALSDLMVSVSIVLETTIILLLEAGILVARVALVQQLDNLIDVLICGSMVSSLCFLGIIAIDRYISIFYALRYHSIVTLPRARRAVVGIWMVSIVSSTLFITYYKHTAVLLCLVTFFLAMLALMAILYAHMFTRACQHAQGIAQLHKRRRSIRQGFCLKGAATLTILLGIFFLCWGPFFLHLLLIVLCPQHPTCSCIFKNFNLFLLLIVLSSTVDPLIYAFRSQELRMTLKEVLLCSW

As for `CCCC[C@H](NC(C)=O)C(=O)N[C@@H](C)C(=O)N[C@@H](Cc1c[nH]cn1)C(=O)N[C@H](Cc1ccccc1)C(=O)N[C@@H](CCCNC(=N)N)C(=O)N[C@@H](Cc1c[nH]c2ccccc12)C(N)=O` [control peptide, Ac-Nle-Ala-His-(D)Phe-Arg-Trp-NH2, reference compound] (Ac-[Nle]AH[dF]RW-NH2), at MC1 receptor [1], the EC50 (as a rule, the concentration that produces a half-maximal response) amounted to 4 nM.

For `CCCCCCCCCCCCCCCC(=O)N[C@@H](Cc1c[nH]cn1)C(=O)N[C@H](Cc1ccccc1)C(=O)N[C@@H](CCCNC(=N)N)C(N)=O` [tripeptide 1, Palm-His-DPhe-Arg-NH2] (Palmitoyl-His-[dF]-Arg-NH2), at MC1 receptor [1], the EC50 was 2.3 nM. The “% cAMP induction” value on MC1 receptor [2] turned out to be 147%. Turning to `CCCCCCCCCCCCCCCC(=O)N[C@@H](Cc1c[nH]cn1)C(=O)N[C@H](Cc1ccccc1)C(=O)N[C@@H](Cc1c[nH]c2ccccc12)C(N)=O` [tripeptide 2, Palm-His-DPhe-Trp-NH2] (Palmitoyl-His-[dF]-Trp-NH2), on MC1 receptor [1], the concentration for a half-maximal effect (EC50) came out at 17.3 nM. This lies in the double-digit nanomolar range.
